From ChEMBL document CHEMBL1201862, “PubChem BioAssay data set” (2004) come the findings set out here.

The source made the active and inactive calls.

For one assay, the target named is Beta-galactosidase (Escherichia coli, UniProt Q8VNN2). Put plainly: PubChem AID 485352. It is filed as functional.
In assay [1] the target is Type-1 angiotensin II receptor (Homo sapiens, UniProt P30556). Put plainly: AT1 receptor antagonists, dose response, selectivity assay for APJ receptor antagonist project, cell-based, uHTS hits (AID 463214).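 Also: antagonist potency against angiotensin II stimulated AT1 response.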 It counts as functional.
The target of another assay is T1, Caspase-3 (Homo sapiens, UniProt P42574).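 Also: Dose-response selectivity test against caspase-3 for candidate inhibitors of sentrin-specific proteases (SENPs).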
T1 sequence (P42574 whole entry): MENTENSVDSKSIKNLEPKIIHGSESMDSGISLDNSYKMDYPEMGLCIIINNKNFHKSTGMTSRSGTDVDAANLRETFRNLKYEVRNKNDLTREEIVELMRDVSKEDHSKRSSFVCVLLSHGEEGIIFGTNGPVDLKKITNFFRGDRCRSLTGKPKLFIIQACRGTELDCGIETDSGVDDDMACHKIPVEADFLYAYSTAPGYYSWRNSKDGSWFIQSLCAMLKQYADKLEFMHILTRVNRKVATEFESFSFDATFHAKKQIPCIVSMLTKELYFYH
It counts as functional.

The target of assay [2] is T2, Sentrin-specific protease 6 (Homo sapiens, UniProt Q9GZR1).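 Also: Luminescence-based dose-response confirmatory assay of SENP6 inhibition, following up an ultra-high-throughput screen.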
T2 sequence (Q9GZR1 whole entry): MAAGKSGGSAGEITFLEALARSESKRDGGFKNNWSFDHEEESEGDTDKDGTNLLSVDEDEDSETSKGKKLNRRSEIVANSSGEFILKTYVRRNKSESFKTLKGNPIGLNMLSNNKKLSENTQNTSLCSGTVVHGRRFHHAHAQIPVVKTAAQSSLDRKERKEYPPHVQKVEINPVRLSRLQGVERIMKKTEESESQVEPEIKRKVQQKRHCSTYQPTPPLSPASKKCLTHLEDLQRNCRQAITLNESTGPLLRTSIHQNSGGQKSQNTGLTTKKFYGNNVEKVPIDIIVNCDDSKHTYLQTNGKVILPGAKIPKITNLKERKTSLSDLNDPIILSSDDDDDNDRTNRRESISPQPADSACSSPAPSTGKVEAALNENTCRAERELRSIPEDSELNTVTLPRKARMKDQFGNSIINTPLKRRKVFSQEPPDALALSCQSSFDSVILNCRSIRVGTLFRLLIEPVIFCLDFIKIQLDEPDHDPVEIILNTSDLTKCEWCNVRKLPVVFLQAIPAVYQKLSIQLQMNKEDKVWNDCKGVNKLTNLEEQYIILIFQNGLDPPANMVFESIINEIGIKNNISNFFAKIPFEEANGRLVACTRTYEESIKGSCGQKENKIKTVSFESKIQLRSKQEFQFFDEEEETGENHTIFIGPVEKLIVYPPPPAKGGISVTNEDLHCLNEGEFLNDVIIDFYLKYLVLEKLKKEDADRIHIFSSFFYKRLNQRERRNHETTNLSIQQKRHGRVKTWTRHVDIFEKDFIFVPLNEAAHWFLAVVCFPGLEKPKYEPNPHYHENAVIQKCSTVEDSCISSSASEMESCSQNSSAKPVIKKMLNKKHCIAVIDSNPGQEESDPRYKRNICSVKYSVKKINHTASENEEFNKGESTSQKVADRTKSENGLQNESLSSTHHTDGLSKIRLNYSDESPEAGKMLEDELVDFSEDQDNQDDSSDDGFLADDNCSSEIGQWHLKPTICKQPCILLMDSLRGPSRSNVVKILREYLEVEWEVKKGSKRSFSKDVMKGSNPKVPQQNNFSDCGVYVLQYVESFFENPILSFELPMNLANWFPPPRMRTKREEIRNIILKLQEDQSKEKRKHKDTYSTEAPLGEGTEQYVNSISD
It is filed as functional.

Assay [3] concerns the target T3, Sentrin-specific protease 7 (Homo sapiens, UniProt Q9BQF6).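 Also: Luminescence-based dose-response confirmation of ultra-high-throughput screening hits, measuring inhibition of SENP7.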
T3 sequence (Q9BQF6 whole entry): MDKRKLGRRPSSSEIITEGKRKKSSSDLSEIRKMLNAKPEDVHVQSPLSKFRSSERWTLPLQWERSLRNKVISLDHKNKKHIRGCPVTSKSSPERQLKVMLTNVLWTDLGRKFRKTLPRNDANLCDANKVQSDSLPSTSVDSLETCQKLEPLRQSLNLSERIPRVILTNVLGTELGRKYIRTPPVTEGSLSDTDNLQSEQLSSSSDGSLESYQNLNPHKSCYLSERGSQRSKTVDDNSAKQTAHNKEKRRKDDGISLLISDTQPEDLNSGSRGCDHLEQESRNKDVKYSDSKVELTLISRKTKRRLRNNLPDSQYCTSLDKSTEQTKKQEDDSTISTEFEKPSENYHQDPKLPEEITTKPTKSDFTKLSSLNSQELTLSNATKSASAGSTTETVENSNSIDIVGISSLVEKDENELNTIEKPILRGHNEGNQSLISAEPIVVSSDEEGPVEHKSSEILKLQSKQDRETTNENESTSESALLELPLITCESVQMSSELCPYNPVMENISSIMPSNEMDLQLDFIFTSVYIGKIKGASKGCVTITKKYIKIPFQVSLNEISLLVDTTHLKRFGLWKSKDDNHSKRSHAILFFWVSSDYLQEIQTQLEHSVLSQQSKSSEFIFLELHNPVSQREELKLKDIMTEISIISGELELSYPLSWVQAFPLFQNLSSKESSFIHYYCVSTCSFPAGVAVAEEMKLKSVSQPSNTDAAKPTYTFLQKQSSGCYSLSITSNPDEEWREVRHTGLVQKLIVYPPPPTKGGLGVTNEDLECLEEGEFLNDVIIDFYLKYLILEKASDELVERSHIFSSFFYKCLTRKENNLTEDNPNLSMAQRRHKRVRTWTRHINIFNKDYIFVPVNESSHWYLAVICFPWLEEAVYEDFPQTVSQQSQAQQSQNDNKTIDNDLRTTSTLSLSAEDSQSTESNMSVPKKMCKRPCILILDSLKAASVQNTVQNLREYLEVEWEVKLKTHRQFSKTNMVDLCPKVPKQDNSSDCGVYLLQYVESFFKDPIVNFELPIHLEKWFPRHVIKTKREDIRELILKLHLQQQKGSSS
It is filed as functional.

Assay [4] concerns the target T4, Sentrin-specific protease 8 (Homo sapiens, UniProt Q96LD8).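 Also: luminescence read-out of SENP8 inhibition, dose-response confirmation following an ultra-high-throughput screen.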
T4 sequence (Q96LD8 whole entry): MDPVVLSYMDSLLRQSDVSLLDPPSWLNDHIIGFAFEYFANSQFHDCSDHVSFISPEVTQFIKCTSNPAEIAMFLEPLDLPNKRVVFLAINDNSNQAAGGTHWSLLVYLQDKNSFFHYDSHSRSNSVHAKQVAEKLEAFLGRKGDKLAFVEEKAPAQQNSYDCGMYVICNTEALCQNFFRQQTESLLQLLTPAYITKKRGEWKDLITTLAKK
It is filed as functional.

A further assay has as its system INS1. Kind of assay: protection from cytokine-induced mitochondrial depolarization, dose response, cell-based, INS-1E, JC-1 fluorescence ratio, dry powder (AID 488931). It is filed as functional. The following applies: Rattus norvegicus.
In the next assay the test system is A-375. Kind of assay: A375 melanoma cell viability reduction, dose response, counter-screen for MITF modulator project, cherry-pick samples, set 2 (AID 540335). It is filed as functional, cell-based. Conditions: Homo sapiens. For orientation: The purpose of a counterscreen is to sort out artefacts and off-target activity.
The target of assay [5] is T5, Histone-lysine N-methyltransferase NSD2 (Homo sapiens, UniProt O96028).
T5 sequence (O96028 whole entry): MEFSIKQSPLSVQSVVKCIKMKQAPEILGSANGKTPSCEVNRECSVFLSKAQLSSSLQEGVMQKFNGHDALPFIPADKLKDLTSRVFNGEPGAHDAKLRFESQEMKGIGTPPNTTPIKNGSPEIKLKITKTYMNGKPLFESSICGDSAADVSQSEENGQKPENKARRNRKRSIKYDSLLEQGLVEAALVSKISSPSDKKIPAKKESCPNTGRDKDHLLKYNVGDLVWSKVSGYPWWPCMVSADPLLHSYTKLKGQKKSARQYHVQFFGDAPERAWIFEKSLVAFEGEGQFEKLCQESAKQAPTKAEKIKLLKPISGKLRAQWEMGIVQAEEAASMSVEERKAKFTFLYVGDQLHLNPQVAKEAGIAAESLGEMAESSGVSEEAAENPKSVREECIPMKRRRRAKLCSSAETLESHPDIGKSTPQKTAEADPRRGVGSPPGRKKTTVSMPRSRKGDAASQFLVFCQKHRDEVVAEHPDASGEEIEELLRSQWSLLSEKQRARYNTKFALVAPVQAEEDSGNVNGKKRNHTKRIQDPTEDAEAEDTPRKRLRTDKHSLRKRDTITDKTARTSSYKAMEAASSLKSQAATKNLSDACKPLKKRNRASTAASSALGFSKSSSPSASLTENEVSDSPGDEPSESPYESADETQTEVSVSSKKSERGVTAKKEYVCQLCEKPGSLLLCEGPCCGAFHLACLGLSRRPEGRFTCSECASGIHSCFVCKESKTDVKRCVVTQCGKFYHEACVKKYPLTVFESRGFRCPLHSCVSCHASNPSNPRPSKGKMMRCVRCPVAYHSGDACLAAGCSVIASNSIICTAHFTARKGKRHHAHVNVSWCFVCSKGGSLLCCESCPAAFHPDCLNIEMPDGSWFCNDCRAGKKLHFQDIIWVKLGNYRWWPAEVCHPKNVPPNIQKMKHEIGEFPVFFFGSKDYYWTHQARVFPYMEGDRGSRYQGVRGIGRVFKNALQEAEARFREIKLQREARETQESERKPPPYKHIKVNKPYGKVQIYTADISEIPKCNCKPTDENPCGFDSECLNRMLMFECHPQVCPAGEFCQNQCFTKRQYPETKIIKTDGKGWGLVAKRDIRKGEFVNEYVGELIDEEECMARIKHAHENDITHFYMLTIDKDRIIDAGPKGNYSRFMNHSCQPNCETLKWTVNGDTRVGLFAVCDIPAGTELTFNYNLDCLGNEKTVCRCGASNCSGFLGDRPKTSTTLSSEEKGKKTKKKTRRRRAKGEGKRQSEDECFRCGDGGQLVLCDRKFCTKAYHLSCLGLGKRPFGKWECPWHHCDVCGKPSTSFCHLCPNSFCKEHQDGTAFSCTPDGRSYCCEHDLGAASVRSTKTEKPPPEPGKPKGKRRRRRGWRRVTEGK
It counts as biochemical.

Assay [6] deals with T6, Microphthalmia-associated transcription factor (Homo sapiens, UniProt O75030).
T6 sequence (O75030 whole entry): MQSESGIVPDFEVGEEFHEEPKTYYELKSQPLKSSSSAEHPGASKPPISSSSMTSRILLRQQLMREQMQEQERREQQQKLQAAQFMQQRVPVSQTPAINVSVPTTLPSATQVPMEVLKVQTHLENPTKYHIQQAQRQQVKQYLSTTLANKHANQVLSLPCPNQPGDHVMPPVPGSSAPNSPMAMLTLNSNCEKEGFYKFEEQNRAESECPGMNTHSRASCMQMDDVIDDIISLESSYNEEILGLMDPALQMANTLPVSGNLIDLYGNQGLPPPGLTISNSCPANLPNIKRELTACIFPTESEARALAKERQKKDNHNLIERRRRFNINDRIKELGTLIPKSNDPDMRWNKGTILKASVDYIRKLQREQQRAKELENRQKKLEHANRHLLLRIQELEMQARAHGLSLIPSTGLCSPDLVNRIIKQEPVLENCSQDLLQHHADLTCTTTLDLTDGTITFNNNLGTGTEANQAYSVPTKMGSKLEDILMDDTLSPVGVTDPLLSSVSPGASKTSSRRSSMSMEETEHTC
Put plainly: TRPM1 promoter luciferase signal decrease, dose response, MITF inhibitor project, cell-based, SK-MEL-5, cherry-picked, set 3 (AID 493073).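 Also: SK-MEL-5 melanoma cells with luciferase driven by the MITF target TRPM1 promoter.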 It counts as functional.

For assay [7], the target named is FAD-linked sulfhydryl oxidase ALR (Homo sapiens, UniProt P55789). Kind of assay: inhibitors of human ALR sulfhydryl oxidase, dose response, biochemical, H2O2 detection, luminescence, cherry-pick (AID 493248).
In assay [8] the target is T7, Heat shock factor protein 1 (Mus musculus, UniProt P38532).
T7 sequence (P38532 whole entry): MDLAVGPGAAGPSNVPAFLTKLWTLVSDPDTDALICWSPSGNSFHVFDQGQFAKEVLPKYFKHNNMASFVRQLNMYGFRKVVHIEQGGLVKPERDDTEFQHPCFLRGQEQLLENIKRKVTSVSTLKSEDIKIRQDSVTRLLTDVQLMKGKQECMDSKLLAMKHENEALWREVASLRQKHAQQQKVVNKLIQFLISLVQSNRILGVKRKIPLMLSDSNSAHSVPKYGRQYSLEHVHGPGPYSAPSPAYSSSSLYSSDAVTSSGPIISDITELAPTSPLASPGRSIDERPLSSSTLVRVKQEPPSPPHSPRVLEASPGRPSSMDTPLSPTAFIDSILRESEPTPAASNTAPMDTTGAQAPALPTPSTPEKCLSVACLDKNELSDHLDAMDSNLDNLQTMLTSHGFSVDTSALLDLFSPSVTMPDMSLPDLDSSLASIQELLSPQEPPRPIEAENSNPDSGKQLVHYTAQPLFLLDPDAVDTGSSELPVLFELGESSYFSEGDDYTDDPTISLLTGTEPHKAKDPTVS
Kind of assay: inhibition of MG132-induced HSE-luciferase signal, confirmation, cell-based, NIH3T3, luminescence, dose retest (AID 2382).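 Also: NIH3T3 fibroblasts with HSF1-driven luciferase reporter stressed by proteasome inhibitor MG132; luminescence from HSF1-driven luciferase expression after 8 hours of MG132 stress.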 It counts as functional.

The subject of another assay is CHO. Put plainly: cytotoxicity in TLR9-MyD88 CHO cells, dose response, cytotoxicity control for TLR9-MyD88 binding inhibitor project, cell-based, luminescence (AID 588339).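 Also: CHO cells stably coexpressing TLR9 and MyD88 fusions from primary screen; compound exposure lasted 48 hours before viability readout.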 It is filed as functional, hamster. Conditions: Cricetulus griseus.

In general, EC50 refers to the concentration giving half of the maximal effect. The IC50 is the point on the concentration scale where inhibition reaches its midpoint. As usually defined, the AC50 is the midpoint of the concentration-response curve, whichever way the signal moves.

Beta-galactosidase, sequence (Q8VNN2 whole entry): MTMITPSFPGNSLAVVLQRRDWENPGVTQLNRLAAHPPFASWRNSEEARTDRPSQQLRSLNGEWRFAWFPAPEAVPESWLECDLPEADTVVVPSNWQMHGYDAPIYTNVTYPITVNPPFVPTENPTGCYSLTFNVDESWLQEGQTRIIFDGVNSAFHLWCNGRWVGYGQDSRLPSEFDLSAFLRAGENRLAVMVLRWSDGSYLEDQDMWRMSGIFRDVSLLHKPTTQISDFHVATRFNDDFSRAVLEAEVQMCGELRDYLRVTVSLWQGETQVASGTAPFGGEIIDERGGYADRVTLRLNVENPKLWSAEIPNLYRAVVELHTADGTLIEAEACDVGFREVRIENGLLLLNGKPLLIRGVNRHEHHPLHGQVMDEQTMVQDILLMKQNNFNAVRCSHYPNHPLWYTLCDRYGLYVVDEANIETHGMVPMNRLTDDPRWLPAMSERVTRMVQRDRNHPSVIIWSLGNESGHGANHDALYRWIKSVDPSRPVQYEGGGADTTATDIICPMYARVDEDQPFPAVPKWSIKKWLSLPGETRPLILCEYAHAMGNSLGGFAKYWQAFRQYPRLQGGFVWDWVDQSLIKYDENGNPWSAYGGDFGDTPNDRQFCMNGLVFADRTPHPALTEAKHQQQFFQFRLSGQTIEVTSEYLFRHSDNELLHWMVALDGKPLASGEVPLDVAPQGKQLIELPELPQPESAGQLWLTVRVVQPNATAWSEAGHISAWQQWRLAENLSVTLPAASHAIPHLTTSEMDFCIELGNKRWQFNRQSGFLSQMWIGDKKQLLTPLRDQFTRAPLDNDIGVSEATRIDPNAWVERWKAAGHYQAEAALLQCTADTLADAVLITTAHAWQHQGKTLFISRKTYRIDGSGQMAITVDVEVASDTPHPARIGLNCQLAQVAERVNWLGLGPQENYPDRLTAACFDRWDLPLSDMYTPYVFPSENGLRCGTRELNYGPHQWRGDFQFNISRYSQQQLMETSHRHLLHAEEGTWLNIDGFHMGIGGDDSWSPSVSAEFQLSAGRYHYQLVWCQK
Type-1 angiotensin II receptor, sequence (P30556 whole entry): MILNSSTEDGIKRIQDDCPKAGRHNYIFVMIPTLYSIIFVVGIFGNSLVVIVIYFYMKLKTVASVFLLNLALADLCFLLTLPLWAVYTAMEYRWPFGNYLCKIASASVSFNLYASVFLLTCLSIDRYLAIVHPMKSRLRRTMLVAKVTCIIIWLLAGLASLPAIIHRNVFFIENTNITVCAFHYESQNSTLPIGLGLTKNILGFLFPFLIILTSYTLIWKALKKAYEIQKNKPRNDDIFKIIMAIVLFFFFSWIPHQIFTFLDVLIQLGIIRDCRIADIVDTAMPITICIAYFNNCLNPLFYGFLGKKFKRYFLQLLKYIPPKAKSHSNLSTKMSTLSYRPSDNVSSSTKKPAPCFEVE
FAD-linked sulfhydryl oxidase ALR, sequence (P55789 whole entry): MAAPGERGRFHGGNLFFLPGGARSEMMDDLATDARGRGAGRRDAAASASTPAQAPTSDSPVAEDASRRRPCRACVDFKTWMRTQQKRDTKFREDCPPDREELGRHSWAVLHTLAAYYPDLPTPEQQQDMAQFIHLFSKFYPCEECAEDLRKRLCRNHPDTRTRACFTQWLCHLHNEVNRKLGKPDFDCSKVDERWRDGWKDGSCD

`Cc1nnsc1C(=O)NNc1ccc(C(C)(C)C)cc1`: the EC50 on Beta-galactosidase is > 40 µM (inactive). The concentration for half-maximal inhibition (IC50) in assay [1] was 2.56 µM (active).

For the compound `Cc1nn2cc(-c3ncc(C(F)(F)F)cc3Cl)cnc2c1Br`, the IC50 is 21.5 µM (active) on Caspase-3, 44.8 µM (active) in assay [2], 19.4 µM (active) in assay [3] and 36.9 µM (active) in assay [4].

For `COc1ccc(S(=O)(=O)N(C)C[C@@H]2Oc3c(NC(=O)C4CCCCC4)cccc3C(=O)N([C@@H](C)CO)C[C@H]2C)cc1`, the half-maximal activity concentration (AC50) in the assay on INS1 is 137 µM (active).

In the case of `O=S(=O)(N/N=C\c1ccc(-c2ccccc2Cl)o1)c1ccccc1`, the EC50 on Beta-galactosidase was > 40 µM (inactive). Further, the IC50 in [1] is on record as > 40 µM (not active).

On to `Cc1cc(C)cc(N2C(=O)NC(=O)/C(=C\C=C\c3ccco3)C2=O)c1`, for which the concentration at half-maximal activity (AC50) in the assay with A-375 is 26.7 µM (active); in [5], 18.1 µM (active); in assay [6] it was 4.88 µM (active); in [7], 0.501 µM (active).

As for `CC(C)OC(=O)c1sc2nc(-c3ccccc3)ccc2c1N`, the EC50 in [8] is < 0.16 µM (active). Moreover, in the assay with CHO, the IC50 was > 49.8 µM (inactive).
